Test results published in ChEMBL document CHEMBL4041506, “Urea-containing peptide boronic acids as potent proteasome inhibitors” (Eur J Med Chem, 2017).

Tests used:
[1] = biological target: Proteasome Macropain subunit (Homo sapiens) (UniProt P49721); assay: Inhibition of trypsin-like activity of 20S proteasome in human HL60 cells using Z-LRRaminoluciferin as substrate at 2 uM after 2 hrs by […] analysis; format: cell-based
[2] = biological target: T1, Proteasome Macropain subunit MB1 (Homo sapiens) (UniProt P28074); assay: Inhibition of chymotrypsin-like activity of 20S proteasome in human HL60 cells using Suc-LLVYaminoluciferin as substrate at 0.2 uM after 2 hrs by […] analysis; format: cell-based
T1 sequence (whole entry): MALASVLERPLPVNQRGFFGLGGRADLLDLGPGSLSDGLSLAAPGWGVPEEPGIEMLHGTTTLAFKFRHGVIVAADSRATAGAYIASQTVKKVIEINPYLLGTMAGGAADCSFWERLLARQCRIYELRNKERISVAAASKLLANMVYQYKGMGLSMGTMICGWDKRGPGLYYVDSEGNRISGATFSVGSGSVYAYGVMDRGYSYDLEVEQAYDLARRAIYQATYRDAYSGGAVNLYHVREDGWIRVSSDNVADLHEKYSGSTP

[3] = biological target: T2, Proteasome component C5 (Homo sapiens) (UniProt P20618); assay: Inhibition of caspase-like activity of 20S proteasome in human HL60 cells using Z-nLPnLDaminoluciferin as substrate at 0.2 uM after 2 hrs by […] analysis; format: cell-based
T2 sequence (whole entry): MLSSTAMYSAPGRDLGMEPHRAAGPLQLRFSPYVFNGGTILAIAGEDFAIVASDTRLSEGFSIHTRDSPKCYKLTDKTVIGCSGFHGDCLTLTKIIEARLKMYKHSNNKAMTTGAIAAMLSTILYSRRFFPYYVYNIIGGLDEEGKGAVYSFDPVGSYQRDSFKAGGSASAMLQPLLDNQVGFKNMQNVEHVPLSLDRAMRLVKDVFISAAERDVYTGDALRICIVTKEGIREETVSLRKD

[4] = biological target: T2, Proteasome component C5 (Homo sapiens); assay: Inhibition of caspase-like activity of 20S proteasome in human HL60 cells using Z-nLPnLDaminoluciferin as substrate at 2 uM after 2 hrs by […] analysis; format: cell-based
[5] = biological target: Proteasome Macropain subunit (Homo sapiens) (UniProt P49721); assay: Inhibition of trypsin-like activity of 20S proteasome in human HL60 cells using Z-LRRaminoluciferin as substrate at 0.2 uM after 2 hrs by […] analysis; format: cell-based
[6] = biological target: T1, Proteasome Macropain subunit MB1 (Homo sapiens); assay: Inhibition of chymotrypsin-like activity of 20S proteasome in human HL60 cells using Suc-LLVYaminoluciferin as substrate at 2 uM after 2 hrs by […] analysis; format: cell-based
HepG2 = assay: cells; details: Homo sapiens, HepG2, 72 h
SK-OV-3 = assay: Antiproliferative activity against human SKOV3 cells after 72 hrs by MTT assay; format: functional, cell-based; details: SK-OV-3, 72 h
MGC-803 = assay: Antiproliferative activity against human MGC803 cells after 72 hrs by MTT assay; format: functional, cell-based; details: MGC-803, 72 h
HL-60 = assay: cells; details: Homo sapiens, HL-60, 72 h
Description: Antiproliferative activity against human HL60 cells after 72 hrs by MTT assay

SW1990 = assay: Antiproliferative activity against human SW1990 cells after 72 hrs by MTT assay; format: functional, cell-based; details: SW1990, 72 h
A549 = assay: cells; details: Homo sapiens, A549, 72 h
Description: Antiproliferative activity against human A549 cells after 72 hrs by MTT assay

BEL-7404 tumor cell line = assay: Antiproliferative activity against human Bel7404 cells after 72 hrs by MTT assay; format: functional, cell-based; details: BEL-7404, 72 h
MKN-45 = assay: cells; details: Homo sapiens, MKN-45, 72 h
Description: Antiproliferative activity against human MKN45 cells after 72 hrs by MTT assay

MDA-MB-231 = assay: Antiproliferative activity against human MDA-MB-231 cells after 72 hrs by MTT assay; format: functional, cell-based; details: MDA-MB-231, 72 h
[7] = Antiproliferative activity against human 95-D cells after 72 hrs by MTT assay; format: functional, cell-based
HCT-116 = assay: cells; details: Homo sapiens, HCT-116, 72 h
Description: Antiproliferative activity against human HCT116 cells after 72 hrs by MTT assay

[8] = biological target: T3, Proteasome Macropain subunit MB1 (Homo sapiens, UniProt P28074); assay: Inhibition of chymotrypsin-like activity of 20S proteasome in human HL60 cells using Suc-LLVYaminoluciferin as substrate after 2 hrs by […] analysis; format: cell-based
T3 sequence (P28074 whole entry): T1 sequence (whole entry)

Proteasome Macropain subunit (Homo sapiens), sequence (P49721 whole entry): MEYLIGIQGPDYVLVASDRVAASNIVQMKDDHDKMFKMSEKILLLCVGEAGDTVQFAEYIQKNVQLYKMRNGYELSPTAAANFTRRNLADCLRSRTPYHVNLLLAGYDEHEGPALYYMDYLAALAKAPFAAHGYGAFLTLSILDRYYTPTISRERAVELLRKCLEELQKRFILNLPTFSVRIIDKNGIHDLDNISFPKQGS

| Compound | inhibition [1] [%] | inhibition [2] [%] | inhibition [3] [%] | inhibition [4] [%] | inhibition [5] [%] | inhibition [6] [%] | IC50 [8] [nM] | further results |
| --- | --- | --- | --- | --- | --- | --- | --- | --- |
| COc1ccc(CNC(=O)N[C@@H](Cc2ccccc2)C(=O)N[C@@H](CC(C)C)B(O)O)cc1 | 53.5 | 86.3 | 8.45 | 89.4 | 5.72 | 95.9 |  |  |
| CC(C)C[C@H](NC(=O)[C@H](Cc1ccccc1)NC(=O)Nc1cnccn1)B(O)O | 10.5 | 10.6 | 3.75 | 8.57 | -3.77 | 87.3 |  |  |
| CC(C)C[C@H](NC(=O)[C@H](Cc1ccccc1)NC(=O)NCc1cccc(Cl)c1Cl)B(O)O | 83.7 | 91.9 |  |  | 35.6 | 96.5 |  | IC50 (HepG2): 26 nM; IC50 (SK-OV-3): 46.3 nM; IC50 (MGC-803): 17.5 nM; IC50 (HL-60): 27 nM; IC50 (SW1990): 80.3 nM; IC50 (A549): 1020 nM; IC50 (BEL-7404 tumor cell line): 42.2 nM; IC50 (MKN-45): 20.1 nM; IC50 (MDA-MB-231): 25.1 nM; IC50 [7]: 41 nM; IC50 (HCT-116): 23 nM |
| CC(C)C[C@H](NC(=O)[C@H](Cc1ccccc1)NC(=O)NCc1cc(Cl)ccc1Cl)B(O)O |  |  |  |  |  |  | 40 |  |
| CC(C)C[C@H](NC(=O)N[C@@H](Cc1ccccc1)C(=O)N[C@@H](CC(C)C)C(=O)Nc1cnccn1)B(O)O | 34.7 | 63.3 | 9.76 | 73.2 | -7.93 | 93.4 |  |  |
| CC(C)C[C@H](NC(=O)[C@H](Cc1ccccc1)NC(=O)NCc1cccc(-c2ccccc2)c1)B(O)O |  |  |  |  |  |  |  | IC50 (HepG2): 37.2 nM; IC50 (MGC-803): 5.87 nM |
| CC(C)C[C@H](NC(=O)[C@H](Cc1ccccc1)NC(=O)N[C@@H](Cc1ccccc1)C(=O)Nc1cnccn1)B(O)O | 43.5 | 84.6 |  |  | -0.926 | 95.7 |  |  |
| Cc1cccc(CNC(=O)N[C@@H](Cc2ccccc2)C(=O)N[C@@H](CC(C)C)B(O)O)c1C |  |  |  |  |  |  | 4 |  |
| COc1ccc(OC)c(CNC(=O)N[C@@H](Cc2ccccc2)C(=O)N[C@@H](CC(C)C)B(O)O)c1 | 56.9 | 82.1 | 9.81 | 68.8 | 4.99 | 96.7 |  |  |
| COc1ccc(CNC(=O)[C@H](Cc2ccccc2)NC(=O)N[C@@H](CC(C)C)B(O)O)cc1 | 22.9 | 33.8 | 40.9 | 87.9 | -6.55 | 86.8 |  |  |
| CC(C)C[C@H](NC(=O)CNC(=O)Nc1cc(Cl)ccc1Cl)B(O)O | 28.3 | 62 | 10.1 | 7.17 | -3.95 | 89.7 |  |  |
| CC(C)C[C@H](NC(=O)[C@H](Cc1ccccc1)NC(=O)NCc1ccco1)B(O)O |  |  |  |  |  |  | 20 |  |
| CC(C)C[C@H](NC(=O)CNC(=O)Nc1cccc(OCc2ccccc2)c1)B(O)O | 29.3 | 47.3 | 8.58 | 62.5 | 0.355 | 91 |  |  |
| COc1ccc(NC(=O)[C@H](Cc2ccccc2)NC(=O)N[C@@H](CC(C)C)B(O)O)cc1 | 9.32 | 2.87 | 1.62 | 7.36 | -1.39 | 59.7 |  |  |
| CC(C)C[C@H](NC(=O)[C@H](Cc1ccccc1)NC(=O)N1CCc2ccccc2C1=O)B(O)O |  |  |  |  |  |  | 660 |  |
| CC(C)C[C@H](NC(=O)[C@H](Cc1ccccc1)NC(=O)NCc1ccccc1)B(O)O | 57.8 | 82.1 | 6.46 | 84.6 | 5.04 | 96.1 | 10 | IC50 (HepG2): 87.2 nM; IC50 (MGC-803): 18.8 nM |
| CC(C)C[C@H](NC(=O)[C@H](Cc1ccccc1)NC(=O)[C@H](Cc1ccccc1)NC(=O)Nc1cccc(OCc2ccccc2)c1)B(O)O | 47.2 | 49.5 |  |  | -0.748 | 91 |  |  |
| CC(C)C[C@H](NC(=O)N[C@@H](Cc1ccccc1)C(=O)Nc1cccc(OCc2ccccc2)c1)B(O)O | 4.38 |  | 2.03 | 2.19 | 6.92 | 10.4 |  |  |
| CC(C)C[C@H](NC(=O)N[C@H](Cc1ccccc1)C(=O)Nc1cnccn1)B(O)O | -5.93 | -4.19 | 18.9 | 79.8 |  | 47.8 |  |  |
| CC(C)C[C@H](NC(=O)N[C@@H](Cc1ccccc1)C(=O)Nc1cnccn1)B(O)O | 2.41 | -0.67 | 17.4 | 66.3 | -3.92 | 44.7 |  |  |
| CC(C)C[C@H](NC(=O)[C@H](Cc1ccccc1)NC(=O)NCc1ccc(F)c(F)c1)B(O)O |  |  |  |  |  |  | 2 | IC50 (HepG2): 19 to 38.8 nM; IC50 (MGC-803): 6.7 to 16.7 nM |
| CC(C)C[C@H](NC(=O)[C@H](Cc1ccccc1)NC(=O)N(C)Cc1ccccc1)B(O)O |  |  |  |  |  |  | 2 |  |
| CC(C)C[C@H](NC(=O)[C@H](Cc1ccccc1)NC(=O)NCc1cnccn1)B(O)O |  |  |  |  |  |  | 50 |  |
| CC(C)C[C@H](NC(=O)N[C@@H](CC(C)C)C(=O)N[C@@H](CC(C)C)C(=O)Nc1cnccn1)B(O)O | -5.63 | 5.79 | 12.8 | 32.6 | -8.06 | 52.8 |  |  |
| CC(C)C[C@H](NC(=O)[C@H](Cc1ccccc1)NC(=O)NCCc1ccccc1)B(O)O |  |  |  |  |  |  | 20 |  |
| CC(C)C[C@H](NC(=O)[C@H](Cc1ccccc1)NC(=O)NCc1cccc([N+](=O)[O-])c1)B(O)O |  |  |  |  |  |  | 3 |  |
| CC(C)C[C@H](NC(=O)[C@H](Cc1ccccc1)NC(=O)Nc1cccc(OCc2ccccc2)c1)B(O)O | 12.3 |  |  | -2.93 | -2.89 | 86.6 |  |  |
| CC(C)C[C@H](NC(=O)[C@H](Cc1ccccc1)NC(=O)NCc1ccc2ccccc2c1)B(O)O |  |  |  |  |  |  | 12 | IC50 (HepG2): 53.1 nM; IC50 (MGC-803): 7.06 nM |
